The text below walks through data of patent publication US8993562B2, “Imidazo[1,2-b]pyridazines, processes, uses, intermediates and compositions” (Ferrer Internacional, S.A., priority 2006, dated 2015).

The subject of experiment [1] is α1-GABAA receptor. In words: Ligand-binding assay, radiolabeled flumazenil competition, cerebellum membranes. The settings on record: rat cerebellum membranes, radiolabeled flumazenil 1 nM. The procedure:
a) Ligand-binding Assays. Determination of the Affinity of Test Compounds for α1- and α2-GABAA Receptor
Male Sprague-Dawley rats weighing 200-250 g at the time of experiment were used. After decapitation of the animal, the cerebellum (tissue that mostly contains α1-GABAA receptor) and spinal cord (tissue that mostly contains α2-GABAA receptor) were removed. The membranes were prepared according to the method by J. Lameh et al. (Prog. Neuro-Psychopharmacol. Biol. Psychiatry, 24, 979-991, 2000) and H. Noguchi et al. (Eur J Pharm, 434, 21-28, 2002) with slight modifications. Once the tissues weighed, they were suspended in 50 mM Tris.HCl (pH 7.4), 1:40 (v/v), or sucrose 0.32 M in the case of spinal cord, homogenized and then centrifuged at 20000 g for 10 minutes at 7° C. The resulting pellet was resuspended under the same conditions and centrifuged again. The pellet was finally resuspended on a minimum volume and kept at −80° C. overnight. A slight modification was used in the case of spinal cord at the first centrifugation step. Centrifugation speed was at 1000 g and the supernatant was collected instead of discarded as in cerebellum. Then, supernatant was centrifuged at 20000 g and resuspended twice more under the same conditions described above for cerebellum. On the next day, the process was repeated until the final pellet was resuspended at a ratio of 1:10 (v/v) in the case of cerebellum and at a ratio of 1:5 (v/v) in the case of spinal cord.
Affinity was determined by competitive tests using radiolabeled flumazenil as ligand. The tests were performed according to the methods described by S. Arbilla et al. (Eur. J. Pharmacol., 130, 257-263, 1986); and Y. Wu et al. (Eur. J. Pharmacol., 278, 125-132, 1995) using 96-well microtiter plates. The membranes containing the study receptors, flumazenil (radiolabeling at a final concentration of 1 nM) and ascending concentrations of test compounds (in a total volume of 230 μl in 50 mM [pH 7.4] Tris.HCl buffer) were incubated. Simultaneously, the membranes were only incubated with the radiolabeled flumazenil (total binding, 100%) and in the presence of an elevated concentration of unradiolabeled flumazenil (non-specific binding, % estimation of radiolabeled ligand). The reactions started on adding the radiolabeled ligand followed by incubation for 60 minutes at 4° C. At the end of the incubation period, 200 μl of reaction were transferred to a multiscreen plate (Millipore) and filtered using a vacuum manifold and then washed three times with cold test buffer. The multiscreen plates were equipped with a GF/B filter that retained the membranes containing the receptors and the radiolabeled ligand which had been bound to the receptors. After washing, the plates were left till dry. Once dried, scintillation liquid was added and left under stirring overnight. The next day the plates were counted using a Perkin-Elmer Microbeta scintillation counter.
For analysis of the results the percentage of specific binding for every concentration of test compound was calculated as follows: specific binding−(X−N/T−N)×100 where, X: amount of bound ligand for every concentration of compound. T: total binding, maximum amount bound to the radiolabeled ligand. N: non-specific binding, amount of radiolabeled ligand bound in a non-specific way irrespective of the receptor used.
Every concentrations of compound were tested in triplicate and their mean values were used to determine the experimental values of % specific binding versus the concentration of compound. Affinity data are expressed as % inhibition at 10^−5M and 10^−7M concentrations.

The subject of experiment [2] is male CD1 mice. In words: In vivo predictive sedation-hypnosis test (traveled distance). The note with it: Mus musculus, ip, 0.5 h, 98.0 μmol/kg intraperitoneal, traveled distance over 30 min versus control, read-out: % inhib motor activity.
Experiment [3] has as its target T1, GABAA receptor.
T1 construct: IC50; other: compounds of the invention; estimated from Ki by Cheng-Prusoff equation, radioligand 1 nM
Briefly: Comparative assay: IC50 values estimated from Cheng-Prusoff equation. It is filed as binding, rat. The settings on record: compounds of the invention; estimated from Ki by Cheng-Prusoff equation, radioligand 1 nM. The procedure: All these compounds have in common that at 3-position, the imidazo[1,2-b]pyradizine ring have an acetamide. The rest of compounds disclosed in WO89/01333 are not structurally so related with the compounds of the present invention.
The IC50 values were estimated from Cheng-Prusoff equation (Cheng Y. C. and Prusoff W. H.; Biochem. Pharmacol. 22, 3099-3108, 1973)
[formula] where, Ki is determined for each one of the compounds of the invention as described above (section (a)). [RL*]: radiolabeled ligand concentration (1 nM). Kd: affinity constant (cerebellum 1.34 nM/spinal cord 1.19 nM)

Consider `Cc1ccc(-c2nc3ccc(C)nn3c2CC(=O)Nc2ccccn2)cc1` [Example 88, 2-(6-Methyl-2-p-tolyl-imidazo[1,2-b]pyridazin-3-yl)-N-pyridin-2-yl-acetamide], for which the “% inhib 10^−5 M, affinity for the α1-subunit of the GABAA receptor” value in experiment [1] (10^−5 M) stood at 100.2%. Further, in experiment [1] (10^−7 M), the “% inhib 10^−7 M, affinity for the α1-subunit of the GABAA receptor” value was 83.9%. The inhibition in vivo at 98 µmol/kg in experiment [2] was 88.5%. Besides, the IC50 in experiment [3] was 13 nM.
Turning to `Cc1ccc(-c2nc3ccc(C)nn3c2CC(=O)Nc2nncs2)cc1` [Example 98, 2-(6-Methyl-2-p-tolyl-imidazo[1,2-b]pyridazin-3-yl)-N-[1,3,4]thiadiazol-2-yl-acetamide], the half-inhibitory concentration (IC50) in experiment [3] was 12.2 nM.

A word on the IC50: it is the concentration that inhibits the measured activity by half.
